In US11021468B2, “TGF-ß inhibitors” (Rigel Pharmaceuticals, Inc., priority 2015, dated 2021) one finds IC50 data, which are given here for 30 compounds.

The test system of one experiment is TGF-β. The experiment in a line: AlphaScreen SureFire SMAD3 (p-Ser423/425) assay, TGF-β-stimulated (TGF-β pSMAD (MPC-11)). Format: cell-based. Particulars: Mus musculus, MPC-11, inhibition of TGF-β signaling, p-SMAD-3 (Ser423/425). The source says: (§1) Example 2: AlphaScreen® SureFire® SMAD3 (p-Ser423/425) Assay
(§2) The p-SMAD-3 (Ser423/425) SureFire® assay has been designed to measure the phosphorylation of endogenous cellular p-SMAD-3 (Ser423/425) in cell lysates and is a system for the screening of both modulators of receptor activation (e.g. agonists and antagonists) as well as agents acting intracellularly, such as small molecule inhibitors of upstream events. The assay will measure p-SMAD-3 (Ser423/425) activation by either cloned or endogenous receptors, and can be applied to primary cells.
(§3) P-SMAD-3 (Ser423/425) SureFire® Assay Protocols
(§4) 96-well Assay Protocol for 293FT and RMS13 adherent cells can be carried out manually or in high throughput with liquid handling robots.
(§5) The cells (80 μL of cells for 96 well plates) were plated in collagen coated tissue culture plates in RPMI or FreeStyle medium (Invitrogen) and incubated overnight. For manual analysis, 6 plates for GDF8, 6 plates for TGFβ, and optionally 6 plates for Alk5ca(ALK5 constitutively active) were used.
(§6) The compound dilution plates were prepared as follows: 12 μL of DMSO was transferred into first column of 96-well plate, and 16 μL of DMSO was transferred into columns 2-12 of the 96-well plate. 12 μL of compound solution was transferred into first column of the DMSO-containing 96-well plate. Three-fold dilution was performed up to column 10 of the DMSO-containing 96-well plate.
(§7) The plate containing cells were treated with compounds for about 10 minutes, and then ligand was added. GDF8 or TGFb was added to plates to stimulate. 293FL cells were stimulated for 90 minutes at 37° C.; and RMS13 cells were stimulated for 60 minutes at 37° C. The medium was then removed from the cells, and 1× Lysis Buffer (about 25 μL) was added and the plate was gently agitated on plate shaker for 5-10 minutes.
(§8) The lysate (5 μL) was then placed into 384-well shallow plates avoiding the generation of bubbles. To this, the Reaction Buffer+Activation Buffer+AlphaScreen® Acceptor beads mixture (5 μL) was added. The plate was sealed with adhesive cover and shielded from light (e.g., with metal foil), and agitated gently on plate shaker for 2 hours at room temperature.
(§9) Dilution buffer+AlphaScreen® Donor beads (2 μL) was then added, and the plate was intubated on the plate shaker for an additional 1½ hours. After completion, the plate was read on Synergy-4 or Enspire plate reader, using AlphaScreen® pSMAD3® settings.
(§10) Representative results for inhibition of GDF8 (data=GDF pSMAD (MPC11) (μM)) and TGF-β (data=TGF-β pSMAD (MPC-11) (μM)) signaling are shown in Table 1: […]
For orientation: In Alpha technology, singlet oxygen from a donor bead excites a nearby acceptor bead.

The subject of another experiment is GDF8. The experiment in a line: AlphaScreen SureFire SMAD3 (p-Ser423/425) assay, GDF8-stimulated (GDF pSMAD (MPC11)). Format: cell-based. The conditions noted are these: Mus musculus, MPC-11, inhibition of GDF8 signaling, p-SMAD-3 (Ser423/425).
Source text: as §1, §2, §3, §4, §5, §6, §7, §8, §9, §10

The IC50 is the concentration that gives 50% inhibition. `Fc1ccccc1-c1ncc(F)c(Nc2ccc3[nH]ncc3c2)n1` [Compound 24, N-(5-Fluoro-2-(2-fluorophenyl)pyrimidin-4-yl)-1H-indazol-5-amine]: the IC50 amounted to 3990 nM with TGF-β and 846 nM in the experiment on GDF8.
For `Fc1ccccc1-c1nccc(Nc2ccc3[nH]ncc3c2)n1` [Compound 17, N-(2-(2-Fluorophenyl)pyrimidin-4-yl)-1H-indazol-5-amine], in that order: 2170 nM and 220 nM.
For `Cc1ccc(C)c(-c2ncc(C)c(Nc3ccc4[nH]ncc4c3)n2)c1` [Compound 41, N-(2-(2,5-Dimethylphenyl)-5-methylpyrimidin-4-yl)-1H-indazol-5-amine], the IC50 came to 168 nM in the experiment with TGF-β and 105 nM in the experiment with GDF8.
For `Fc1ccc(-c2nccc(Nc3cnc4[nH]ncc4c3)n2)cc1` [Compound 4, N-(2-(4-Fluorophenyl)pyrimidin-4-yl)-1H-pyrazolo[3,4-b]pyridin-5-amine], in that order: 840 nM and 171 nM.
For the compound `COc1cccc(-c2nccc(Nc3ccc4[nH]ncc4c3)n2)c1` [Compound 19, N-(2-(3-Methoxyphenyl)pyrimidin-4-yl)-1H-indazol-5-amine], the IC50 in the experiment on TGF-β turned out to be 4050 nM; in the experiment on GDF8, 766 nM.
The matching figures for `Cc1ccc(C)c(-c2ncc(C)c(Nc3cc4cn[nH]c4cc3F)n2)c1` [Compound 59, 6-Fluoro-N-(2-(2,5-dimethylphenyl)-5-methylpyrimidin-4-yl)-1H-indazol-5-amine]: 558 nM and 332 nM.
Turning to `Cc1cc(-c2ncc(C)c(Nc3cnc4[nH]ncc4c3)n2)ccc1F` [Compound 49, N-(2-(4-Fluoro-3-methylphenyl)-5-methylpyrimidin-4-yl)-1H-pyrazolo[3,4-b]pyridin-5-amine], the values for the IC50 with TGF-β and with GDF8 were 349 nM and 545 nM, respectively.
`Cc1cccc(-c2ncc(C)c(Nc3cc4cn[nH]c4cc3C)n2)c1` [Compound 52, N-(2-(3-Methylphenyl)-5-methylpyrimidin-4-yl)-6-methyl-1H-indazol-5-amine]: the IC50 was determined as 322 nM with TGF-β and 234 nM in the experiment on GDF8.
For `Fc1ccc(-c2nc(Nc3ccc4[nH]ncc4c3)c3cc[nH]c3n2)cc1` [Compound 5, 2-(4-Fluorophenyl)-N-(1H-indazol-5-yl)-7H-pyrrolo[2,3-d]pyrimidin-4-amine], in that order: 751 nM and 66.1 nM.
Regarding `Fc1ccc(-c2ncc(F)c(Nc3ccc4[nH]ncc4c3)n2)cc1F` [Compound 35, N-(2-(3,4-Difluorophenyl)-5-fluoropyrimidin-4-yl)-1H-indazol-5-amine], the values for the IC50 with TGF-β and in the experiment with GDF8 were 2000 nM and 258 nM, respectively.
For `Cc1ccccc1-c1ncc(C)c(Nc2ccc3[nH]ncc3c2)n1` [Compound 39, N-(2-(2-Methylphenyl)-5-methylpyrimidin-4-yl)-1H-indazol-5-amine], the IC50 in the experiment on TGF-β is 436 nM; with GDF8, 204 nM.
For the compound `Cc1cnc(-c2ccc(F)c(F)c2)nc1Nc1cc2cn[nH]c2cc1F` [Compound 60, 6-Fluoro-N-(2-(3,4-difluorophenyl)-5-methylpyrimidin-4-yl)-1H-indazol-5-amine], the IC50 in the experiment on TGF-β is 1040 nM; in the experiment with GDF8, 454 nM.
In the case of `Fc1cccc(-c2ncc(F)c(Nc3ccc4[nH]ncc4c3)n2)c1` [Compound 36, N-(5-Fluoro-2-(3-fluorophenyl)pyrimidin-4-yl)-1H-indazol-5-amine], the IC50 in the experiment on TGF-β was 3060 nM; in the experiment with GDF8 it was 555 nM.
The matching figures for `COc1ccc(-c2nccc(Nc3ccc4[nH]ncc4c3)n2)cc1F` [Compound 28, N-(2-(3-Fluoro-4-methoxyphenyl)pyrimidin-4-yl)-1H-indazol-5-amine]: 2140 nM and 363 nM.
The matching figures for `Cc1cccc(-c2nc(Nc3ccc4[nH]ncc4c3)c3[nH]ccc3n2)c1` [Compound 11, N-(1H-Indazol-5-yl)-2-(3-methylphenyl)-5H-pyrrolo[3,2-d]pyrimidin-4-amine]: 5330 nM and 917 nM.
The matching figures for `Fc1ccc(-c2nc(Nc3ccc4[nH]ncc4c3)c3[nH]ccc3n2)cc1` [Compound 10, 2-(4-Fluorophenyl)-N-(1H-indazol-5-yl)-5H-pyrrolo[3,2-d]pyrimidin-4-amine]: 5130 nM and 644 nM.
For `N#Cc1cccc(-c2nccc(Nc3ccc4[nH]ncc4c3)n2)c1` [Compound 29, N-(2-(3-Cyanophenyl)pyrimidin-4-yl)-1H-indazol-5-amine], the concentration for half-maximal inhibition (IC50) in the experiment with TGF-β stood at 85.3 nM; with GDF8, 21.5 nM.
The matching figures for `Cc1cnc(-c2cccc(F)c2)nc1Nc1cnc2[nH]ncc2c1` [Compound 13, N-(2-(3-Fluorophenyl)-5-methylpyrimidin-4-yl)-1H-pyrazolo[3,4-b]pyridin-5-amine]: 2720 nM and 883 nM.
Consider `Cc1cnc(-c2cccc(F)c2)nc1Nc1cc2cn[nH]c2cc1F` [Compound 57, 6-Fluoro-N-(2-(3-fluorophenyl)-5-methylpyrimidin-4-yl)-1H-indazol-5-amine], for which the half-maximal inhibitory concentration (IC50) with TGF-β came to 1820 nM; with GDF8, 852 nM.
As to `Cc1ccc(C)c(-c2nccc(Nc3ccc4c(cnn4C(=O)CN(C)C)c3)n2)c1` [Compound 1, 2-(Dimethylamino)-1-(5-((2-(2,5-dimethylphenyl)pyrimidin-4-yl)amino)-1H-indazol-1-yl)ethan-1-one], the IC50 was found to be 560 nM in the experiment with TGF-β and 47.2 nM in the experiment with GDF8.
For `Cc1cccc(-c2ncc(C)c(Nc3cnc4[nH]ncc4c3)n2)c1` [Compound 16, N-(2-(3-Methylphenyl)-5-methylpyrimidin-4-yl)-1H-pyrazolo[3,4-b]pyridin-5-amine], in that order: 410 nM and 289 nM.
As to `Cc1cccc(-c2nccc(Nc3ccc4[nH]ncc4c3)n2)c1` [Compound 32, N-(2-(3-Methylphenyl)pyrimidin-4-yl)-1H-indazol-5-amine], the IC50 with TGF-β was determined as 553 nM; in the experiment on GDF8, 116 nM.
The matching figures for `Fc1ccc(-c2nc(Nc3ccc4[nH]ncc4c3)c3cc[nH]c3n2)c(F)c1` [Compound 7, 2-(2,4-Difluorophenyl)-N-(1H-indazol-5-yl)-7H-pyrrolo[2,3-d]pyrimidin-4-amine]: 874 nM and 119 nM.
For `Cc1cnc(-c2ccc(F)cc2)nc1Nc1cnc2[nH]ncc2c1` [Compound 14, N-(2-(4-Fluorophenyl)-5-methylpyrimidin-4-yl)-1H-pyrazolo[3,4-b]pyridin-5-amine], in that order: 732 nM and 306 nM.
The matching figures for `Fc1ccc(-c2nccc(Nc3ccc4[nH]ncc4c3)n2)cc1` [Compound 33, N-(2-(4-Fluorophenyl)pyrimidin-4-yl)-1H-indazol-5-amine]: 203 nM and 25.1 nM.
With `Cc1cc(-c2nc(Nc3ccc4[nH]ncc4c3)c3cc[nH]c3n2)ccc1F` [Compound 8, 2-(4-Fluoro-3-methylphenyl)-N-(1H-indazol-5-yl)-7H-pyrrolo[2,3-d]pyrimidin-4-amine], the IC50 in the experiment on TGF-β was found to be 747 nM; in the experiment on GDF8 it was 84.2 nM.
The matching figures for `Cc1cc(-c2ncc(C)c(Nc3cc4cn[nH]c4cc3F)n2)ccc1F` [Compound 61, 6-Fluoro-N-(2-(4-fluoro-3-methylphenyl)-5-methylpyrimidin-4-yl)-1H-indazol-5-amine]: 535 nM and 241 nM.
Take `Fc1cnc(-c2ccccc2)nc1Nc1ccc2[nH]ncc2c1` [Compound 37, N-(5-Fluoro-2-phenylpyrimidin-4-yl)-1H-indazol-5-amine]: the IC50 in the experiment with TGF-β was found to be 3260 nM; in the experiment on GDF8, 459 nM.
The matching figures for `Cc1cccc(-c2ncc(C)c(Nc3cc4cn[nH]c4cc3F)n2)c1` [Compound 58, 6-Fluoro-N-(2-(3-methylphenyl)-5-methylpyrimidin-4-yl)-1H-indazol-5-amine]: 808 nM and 394 nM.
The matching figures for `FC(F)(F)c1cccc(-c2nccc(Nc3ccc4[nH]ncc4c3)n2)c1` [Compound 45, N-(2-(3-Trifluoromethylphenyl)pyrimidin-4-yl)-1H-indazol-5-amine]: 4370 nM and 652 nM.
